Measured values from patent US6583132B1, “Oxidant scavengers” (Duke University, priority 1993, dated 2003).

Tests used:
[1] = SOD activity (McCord and Fridovich); assay type: biochemical
Description: SOD activity can be monitored in the presence and absence of EDTA using the method of McCord and Fridovich (J. Biol. Chem. 244:6049 (1969)). The efficacy of a mimetic can be determined by measuring the effect of the mimetic on the growth of a SOD null E. coli strain versus a wild type strain. Specifically, wild type E. coli (AB1157) and SOD null E. coli. (JI132) can be grown in M9 medium containing 0.2% casamino acids and 0.2% glucose at pH 7.0 and 37° C.; growth can be monitored in terms of turbidity followed at 700 nm spectrophotometrically. Active mimetics can be tested for toxicity in mammalian cell culture by measuring lactate dehydrogenase (LDH) release. Specifically, rat L2 cells (a lung Type II like cell; (Kaighn and Douglas, J. Cell Biol. 59:106a (1973)) can be grown in Ham's F-12 medium with 10% fetal calf serum supplement at pH 7.4 and 37° C.; cells can be seeded at equal densities in 24 well culture dishes and grown to approximately 90% confluence; SOD mimetics can be added to the cells at log doses (eg micromolar doses in minimal essential medium (MEM)) and incubated for 24 hours. Toxicity can be assessed by morphology and by measuring the release of the cytosolic injury marker, LDH (eg on a thermokinetic plate reader), as described by Vassault (In: Methods of Enzymatic Analysis, Bergmeyer (ed) pp. 118-26 (1983); oxidation of NADH is measured at 340 nm). Efficacy of active mimetics can be assessed by determining their ability to protect mammalian cells against methylviologen (paraquat)-induced toxicity. Specifically, rat L2 cells grown as described above and seeded into 24 well dishes can be pre-incubated with various concentrations of the SOD mimetic and then incubated with a concentration of methylviologen previously shown to produce an LC75 in control L2 cells. Efficacy of the mimetic can be correlated with a decrease in the methylviologen-induced LDH release (St. Clair et al, FEBS Lett. 293:199 (1991)). The efficacy of SOD mimetics can be tested in vivo with mouse and/or rat models using both aerosol administration and parenteral injection. For example, male Balb/c mice can be randomized into 4 groups of 8 mice each to form a standard 2×2 contingency statistical model. Animals can be treated with either paraquat (40 mg/kg, ip) or saline and treated with SOD mimetic or vehicle control. Lung injury can be assessed 48 hours after paraquat treatment by analysis of bronchoalveolar lavage fluid (BALF) damage parameters (LDH, protein and % PMN) as previously described (Hampson et al, Tox. Appl. Pharm. 98:206 (1989); Day et al, J. Pharm. Methods 24:1 (1990)). […]
^2SOD activity determined as described by McCord and Fridovich, J. Biol. Chem. […] (1969).

[2] = system: calf pulmonary artery endothelial cell cultures (CPA-47); test: Paraquat-induced injury of CPA-47 cells, LDH release; assay type: cell-based; conditions: varying concentrations; Paraquat 2 mM, 24 hours
Description: Calf pulmonary artery endothelial cell cultures (CPA-47) were grown to confluence in Ham's F-12K medium with 10% fetal bovine serum at pH 7.4 and 37° C. Cells were then trypsinized and seeded at equal densities in 24 well plates and grown to 90% confluence. Cells were washed and pre-incubated for 1 hour with varying concentrations of ZnTBAP in MEM or MEM only. Paraquat (2 mM) was added and allowed to incubate for 24 hours. Cell injury was quantitated by measuring the release of cellular lactate dehydrogenase (LDH) into the medium.

[3] = system: Calf pulmonary endothelial cell (CPA-47) line; test: Glucose oxidase hydrogen peroxide injury of CPA-47, Cr^51 release; assay type: cell-based; conditions: glucose oxidase 100 Mu/ml, 4 hours; 1 hour pretreatment
Description: (§1) Calf pulmonary endothelial cell (CPA-47) line was grown to near confluence in 12-well plates with F-12K medium containing 10% fetal calf serum. CPA-47 cells were loaded with Cr^51 as previously described by Simon et al J. Clin. Invest. 78:1375 (1986) in high glucose minimum essential medium (DMEM). Cells were pretreated with MnTBAP (100 μM) for 1 hour and then exposed to various concentrations of hydrogen peroxide generator, glucose oxidase, for 4 hours. Cell injury was then quantitated as the specific Cr^51 release from CPA-47 cells which has been adjusted for spontaneous Cr51 release.
as §1, with “(J.” for “J.”, “(1986))” for “(1986)”, “various concentrations of either: (A) MnTBAP; (B) MnTMPyP; (C) ZnTBAP; or (D) CuZnSOD” for “MnTBAP (100 μM)”, “the” for “various concentrations of”, “oxidase (100 Mu/ml),” for “oxidase,”, “Cr^51” for “Cr51”

CuZn SOD = molecular target: T1, CuZn SOD (Mus musculus, UniProt P08228); test: Brain CuZn SOD activity after diethyldithiocarbamate; assay type: in vivo; conditions: transgenic and nontransgenic mice, sacrificed one hour later
T1 construct: from tissue; host or cells: mouse brain; homogenate fraction left after removal of EC-SOD on concanavalin A sepharose
Description: (§2) Separation of SOD isoenzymes by concanavalin A sepharose chromatography: Tissues taken from 3 mice were weighed, then combined and homogenized in 10 volumes of ice-cold 50 mM potassium phosphate, pH 7.4, with 0.3 M. KBr, 3 mM diethylenetriaminepentaacetic acid, and 0.5 mM phenylmethylsulfonyl fluoride. Separation of EC-SOD from CuZn SOD and Mn SOD was accomplished by passing tissue homogenates over a concanavalin A sepharose column as described (Marklund et al, Clin. Chim. Acta 126:4 (1982)). SOD activity: EC-SOD activity and total SOD activity (CuZn SOD and Mn SOD) remaining after EC-SOD extraction were measured by inhibition of cytochrome C reduction at pH 10, as previously described (Crapo et al, Methods Enzymol. 53:382 (1978)). Total protein was determined by the BCA protein assay (Pierce, Rockford, Ill.). The SOD activities were then expressed as units/mg total protein. To determine the extent of EC-SOD and CuZn SOD inhibition by diethyldithiocarbamate, mice were given diethyldithiocarbamate and sacrificed one hour later. The brains were removed and assayed for EC-SOD and CuZn SOD activity as described above.

EC-SOD = molecular target: T2, EC-SOD (Mus musculus, UniProt O09164); test: Brain EC-SOD activity after diethyldithiocarbamate; assay type: in vivo; conditions: transgenic and nontransgenic mice, sacrificed one hour later
T2 construct: The brains were removed and assayed for EC-SOD and CuZn SOD activity as described above; from tissue; host or cells: mouse brain; EC-SOD separated from the homogenate on concanavalin A sepharose
T2 sequence (O09164 25-251): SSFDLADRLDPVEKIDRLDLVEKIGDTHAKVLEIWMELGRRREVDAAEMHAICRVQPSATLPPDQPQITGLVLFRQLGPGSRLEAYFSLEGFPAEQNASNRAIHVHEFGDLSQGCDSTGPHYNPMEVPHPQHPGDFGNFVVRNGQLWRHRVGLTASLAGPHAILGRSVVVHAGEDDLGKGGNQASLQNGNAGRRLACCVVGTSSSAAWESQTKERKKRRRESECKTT
Description: as §2

[4] = CNS oxygen toxicity, 6 ATA hyperbaric oxygen exposure; assay type: in vivo, mice; conditions: 6 ATA oxygen 25 minutes, DDC 400 mg/kg i.p. or LNNA 20 mg/kg i.p.
Description: Oxygen exposures: 7-8 week old mice were exposed to hyperbaric oxygen five at a time in a small-animal chamber (Bethlehem, Pa.). After flushing the chamber with pure oxygen, compression to 50 meters (6 ATA) was performed within 5 minutes. The oxygen concentration in the chamber was monitored continuously with a Servomex oxygen analyzer (model 572, Sybron, Norwood, Mass.) and maintained at ≳99%. The carbon dioxide concentration was analyzed from intermittent samples of chamber gas with an IR detector (IR Industries, Santa Barbara, Calif.) and was not allowed to rise above 0.1%. The chamber temperature was maintained at 25-26° C., but the compression of oxygen in the chamber raised the temperature to 30-32° C. transiently, but an environmental control system restored the normal chamber temperature within 3 minutes. […] The mice were observed continuously for signs of oxygen toxicity from the beginning of the exposure until 4 hours after removal from the chamber. The time to the first generalized convulsion (seizure latency) and the time to death were recorded. These exposure conditions are designed to cause CNS oxygen toxicity without appreciable evidence of pulmonary oxygen toxicity.
Treatment with diethyldithiocarbamate: One hour prior to exposure to 6 ATA oxygen, mice were given either i.p. injections of either 0.008 cc/g saline or 400 mg/kg diethyldithiocarbamate dissolves in normal saline (0.008 cc/g). The mice were then exposed to 6 ATA oxygen for 25 minutes as described above.
Treatment with β-mercaptoethanol: One hour prior to exposure to 6 ATA oxygen, mice were given either i.p. injections of 0.008 cc/g saline or 180 mg/kg β-mercaptoethanol (0.008 cc/g). This dose of β-mercaptoethanol was selected because it contains an equal number of reducing thiols as the dose of diethyldithiocarbamate. The mice were then exposed to 6 ATA oxygen for 30 minutes as described above.
Treatment with N-ω-nitro-L-arginine, an inhibitor of nitric oxide synthase: Ten minutes prior to beginning compression, 0.008 cc/g saline or 20 mg/kg (0.008 cc/g) N-ω-nitro-L-arginine dissolved in sterile water was given i.p to the transgenic and nontransgenic mice. Mice were then exposed at 6 ATA oxygen for 25 or 75 minutes as described above.

T1 sequence (P08228 whole entry): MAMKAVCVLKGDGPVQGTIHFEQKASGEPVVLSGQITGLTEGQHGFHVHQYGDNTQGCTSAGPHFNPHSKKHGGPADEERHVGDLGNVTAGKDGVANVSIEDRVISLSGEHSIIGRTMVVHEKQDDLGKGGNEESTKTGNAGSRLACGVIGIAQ

Row | Structure (SMILES) | SOD activity, fold less than MnTBAP [1] [fold] | paraquat-induced LDH release / injury [2] | hydrogen peroxide-induced endothelial cell injury [3] | inhibition at 400 mg/kg (CuZn SOD) [%] | inhibition at 400 mg/kg (EC-SOD) [%] | Survival ([4]; nontransgenic mice) [%] | Survival ([4]; transgenic mice) [%]
1 | O=C(O)c1ccc(-c2c3nc(c(-c4ccc(C(=O)O)cc4)c4ccc([n-]4)c(-c4ccc(C(=O)O)cc4)c4nc(c(-c5ccc(C(=O)O)cc5)c5ccc2[n-]5)C=C4)C=C3)cc1.[Zn+2] [ZnTBAP, reference compound] | 10 | does not protect against paraquat-induced injury | does not reduce |  |  |  | 
2 | CCN(CC)C(=S)S [diethyldithiocarbamate] |  |  |  | 60 | 80 | 93 | 100
